Reference: ChEMBL document CHEMBL5325456, “5-(4-Hydroxyphenyl)-3H-1,2-dithiole-3-thione derivatives of brefeldin A: Design, synthesis and cytotoxicity in MDA-MB-231 human breast cancer cells” (Bioorg Med Chem, 2023)

Legend:
[1] = Antiproliferative activity against human L02 cells assessed as reduction in cell viability incubated for 48 hrs by CCk-8 assay; type: toxicity, cell-based
[2] = Selectivity index, ratio of IC50 for antiproliferative activity against human L02 cells to IC50 for antiproliferative activity against human MDA-MB-231 cells; type: toxicity, cell-based; conditions: L02 cells and MDA-MB-231 cells, read-out: Ratio IC50
MDA-MB-231 [3] = test: Induction of cell cycle arrest in human MDA-MB-231 cells assessed as accumulation of cells at G1 phase at 82.5 nM incubated for 48 hrs by flow cytometry analysis (reference value: 47.44 %); type: functional
MDA-MB-231 [4] = test: Induction of cell cycle arrest in human MDA-MB-231 cells assessed as accumulation of cells at G1 phase at 0.165 uM incubated for 48 hrs by flow cytometry analysis (reference value: 47.44 %); type: functional
MDA-MB-231 [5] = test: Induction of cell cycle arrest in human MDA-MB-231 cells assessed as accumulation of cells at S phase at 0.165 uM incubated for 48 hrs by flow cytometry analysis (reference value: 36.51%); type: functional
MDA-MB-231 [6] = test: Induction of cell cycle arrest in human MDA-MB-231 cells assessed as accumulation of cells at G1 phase at 0.33 uM incubated for 48 hrs by flow cytometry analysis (reference value: 47.44 %); type: functional
MDA-MB-231 [7] = test: Induction of cell cycle arrest in human MDA-MB-231 cells assessed as accumulation of cells at G2 phase at 0.33 uM incubated for 48 hrs by flow cytometry analysis (reference value: 16.05 %); type: functional
MDA-MB-231 [8] = test: Induction of apoptosis in human MDA-MB-231 cells assessed as necrotic cells at 82.5 nM incubated for 48 hrs by Annexin-V/FITC-PI staining based flow cytometry analysis (reference value: 0.99 %); type: functional
MDA-MB-231 [9] = test: Induction of apoptosis in human MDA-MB-231 cells assessed as necrotic cells at 0.165 uM incubated for 48 hrs by Annexin-V/FITC-PI staining based flow cytometry analysis (reference value: 0.99 %); type: functional
MDA-MB-231 [10] = test: Inhibition of cell migration in human MDA-MB-231 cells assessed as wound healing rate at 0.33 uM measured immediately by scratch wound healing assay (Rvb= 871.53 +/- 3.02 %); type: functional; parameters: scale not given: the % may be the effect or the level left
MDA-MB-231 [11] = test: Inhibition of cell migration in human MDA-MB-231 cells assessed as wound healing rate at 82.5 nM measured for 24 hrs by scratch wound healing assay (Rvb= 230.22 +/- 32.21 %); type: functional; parameters: scale not given: the % may be the effect or the level left

Molecule `C[C@H]1CCC/C=C/[C@@H]2C[C@H](O)C[C@H]2[C@H](OC(=O)CCCC(=O)OCCOc2ccc(-c3cc(=S)ss3)cc2)/C=C/C(=O)O1` has an IC50 at 48 h [1] of 1.75 µM, a selectivity ratio [2] of 5.3 and an Activity (MDA-MB-231 [3]) of 56.27%. The Activity (MDA-MB-231 [4]) was 60.09%, the Activity (MDA-MB-231 [5]) was 30.39% and the Activity (MDA-MB-231 [6]) was 69.88%. It also gave an Activity (MDA-MB-231 [7]) of 7.13%, an Activity (MDA-MB-231 [8]) of 2.12% and an Activity (MDA-MB-231 [9]) of 1.87%. It also gave an Activity (MDA-MB-231 [10]) of 844.92% and an Activity (MDA-MB-231 [11]) of 383.42%.
